Measured values from a melting point compilation (Tetko et al.).

Conditions: a range is the spread between reports

| melting point [°C] | Structure (SMILES) |
| --- | --- |
| 104 to 106 | CCCCCCCCCCCCCC(N)=O |
| 44 to 48.5 | COc1cccc(OC)c1OC |
| -62.3 to -62 | CCc1ccc(C)cc1 |
| 132 to 134 | Cc1ccc(C)c(C(=O)O)c1 |
| 127 to 131 | COc1ccc(NC(C)=O)cc1 |
| 15 to 16 | c1ccc(NC2CCCCC2)cc1 |
| 121 to 122 | C=C(CC)C(=O)c1ccc(OCC(=O)O)c(Cl)c1Cl |
| 101 to 102 | CC(=O)n1ccnc1 |
| 152 to 155 | CC(=O)Nc1cccc([N+](=O)[O-])c1 |
| 61 to 64 | OCc1cccc2ccccc12 |
| -13 to -11 | CC(C)C(O)C(C)(C)C (stereo not drawn) |
| -118 | CCC1=CCCC1 |
| 13.3 to 14 | CCC(c1ccccc1)c1ccccc1 |
| 78 to 80.5 | OCc1cc(Cl)cc(Cl)c1 |
| -113 | CCCCC(C)CCC (stereo not drawn) |
| 6 to 6.5 | CC(C)(C)CC(=O)O |
| 317 to 320 | c1ccc(-c2ccc(-c3ccc(-c4ccccc4)cc3)cc2)cc1 |
| 50 to 51.5 | C=C(C(=O)O)C(F)(F)F |
| 40 to 42 | O=C1CCc2ccccc21 |
| 14 to 15 | NCCCN1CCN(CCCN)CC1 |
| -88 to -87.7 | CCCCC(C)CCCC |
| 70 to 72 | c1ccc(-c2ccccn2)nc1 |
| 48.5 to 53 | CCOC(=O)C(NC=O)C(=O)OCC |
| 190 to 192 | Nc1ccc(S(=O)(=O)Nc2ccccn2)cc1 |
| 40.5 to 41 | COc1cc(CCC(C)=O)ccc1O |
| 275 to 276 | c1ccc(-c2nc(-c3ccccc3)c(-c3ccccc3)[nH]2)cc1 |

| melting point [°C] | Structure (SMILES) |
| --- | --- |
| 162 to 163 | Cc1occc(=O)c1O |
| 134 | O=C(O)CCc1c[nH]c2ccccc12 |
| 208 | CC(C)(C)c1cc(C(=O)O)cc(C(C)(C)C)c1O |
| -92 to -91 | CCCCC=O |
| -96.1 to -96 | C1CCSC1 |
| 65 to 66 | N#Cc1ccc2ccccc2c1 |
| 128 to 129 | CC(C)C(N)=O |
| -15.2 to -15 | Cc1ccc(Cl)c(Cl)c1 |
| 57 to 59.5 | c1ccc2c(c1)Oc1ccccc1S2 |
| 29 to 32 | CS(=O)c1ccccc1 (stereo not drawn) |
| 81 | Cc1ccc2n[nH]nc2c1 |
| 165 to 166 | COc1ccc(C(N)=O)cc1 |
| 107 to 109 | Cc1c(N)c(=O)n(-c2ccccc2)n1C |
| 126 to 128 | O=C1Cc2ccccc2N1 |
| -141 | C=CCCC=C |
| -82.5 to -82 | CC[Si](CC)(CC)CC |
| -84 to -83.6 | CCOC(C)=O |
| 5 to 5.6 | CCCCCCCCCCCCCCBr |
| 102 to 103 | OC[C@@H](O)[C@@H](O)[C@@H](O)CO |
| 237 to 238 | O=C(O)c1cccnc1 |
| 138 to 139 | Cc1ccc(S(N)(=O)=O)cc1 |
| 256 to 260 | CC(=O)Nc1ccc(C(=O)O)cc1 |
| 78 to 81 | CC(=O)c1cccc([N+](=O)[O-])c1 |
| 12.5 to 13.5 | C=CC(=O)O |
| 186 | O=C(O)CCC(=O)c1ccc(-c2ccccc2)cc1 |
| 118 to 119 | O=C(n1ccnc1)n1ccnc1 |

| melting point [°C] | Structure (SMILES) |
| --- | --- |
| -36 to -35 | Cc1cccc(C)c1Cl |
| 194 to 196 | O=[N+]([O-])c1ccccc1SSc1ccccc1[N+](=O)[O-] |
| -4 to -2.8 | C=CCCCCCCCCCCCCC |
| -116 to -112 | CC1CCC(C)C1C (stereo not drawn) |
| 61 to 64.5 | CCOc1ccc(C=O)cc1OC |
| 70 to 72 | CCOc1ccc(OCC)cc1 |
| -91 to -90.5 | CCc1ccncc1 |
| 41 to 44.5 | COc1cccc(C=O)c1O |
| 50 to 54 | CC(C)(C)CO |
| 46 to 49.5 | Cc1ccc(-c2ccccc2)cc1 |
| 21 to 23 | C/C=C/c1ccc(OC)cc1 |
| 49 to 51 | COc1ccc(C(C)=O)cc1OC |
| 153 to 155 | Oc1ccc(Sc2ccc(O)cc2)cc1 |
| 60 to 62.5 | O=C(O)CCBr |
| 95 to 97 | ClCC(CCl)(CCl)CCl |
| 5 to 5.2 | CCCCCCCCCCCC(=O)OC |
| 70 to 71 | O=c1ccc2ccccc2o1 |
| -0.1 to 0.5 | CCCCCCC=CCCCCCCCC(=O)O |
| 85 to 86 | Clc1cc(Cl)c(Cl)c(Cl)c1Cl |
| 180 to 184 | CN(C)C(N)=O |
| 60 to 61 | OCC1CCCNC1 (stereo not drawn) |
| 162 to 164 | O=C(O)c1cccc(F)c1F |
| -5 to -2.4 | O=[N+]([O-])c1cccc(C(F)(F)F)c1 |
| 75 to 75.4 | CCCCCCCCCCCCCCCCCCCC(=O)O |
| 41.5 to 44.5 | CCCCCCCCCCCCC(=O)O |
| 35 to 38.5 | NCCCCCO |

| melting point [°C] | Structure (SMILES) |
| --- | --- |
| 202 to 206 | O=C(O)C=Cc1ccccc1C(F)(F)F |
| 40.5 to 43 | CC(=O)O[Si](C)(OC(C)=O)OC(C)=O |
| 161 to 162 | NC(=O)c1ccc(O)cc1 |
| 51 to 55 | c1ccc(CCc2ccccc2)cc1 |
| 95 to 96 | Cc1cccc([N+](=O)[O-])c1N |
| 135 to 140 | COc1ccc(C(=O)c2ccc(OC)cc2O)c(O)c1 |
| 191 to 192 | c1ccc(-c2nnc(-c3ccccn3)nc2-c2ccccc2)cc1 |
| 72 to 73 | COC(=O)NN |
| 28.5 to 29 | C=CCCCCCCCCCCCCCCCCCC |
| 155 to 157 | CC(=O)Nc1ccc(Cl)cc1F |
| 83 to 84 | Oc1ccc(Cc2ccccc2)cc1 |
| 37 to 38.5 | O=[N+]([O-])c1cccc(I)c1 |
| 44 to 47 | CCCCCCCCCCCCCCC(C)O (stereo not drawn) |
| 45.5 to 46 | Oc1ccccc1C(F)(F)F |
| 66 to 67 | Clc1ncccn1 |
| -39 to -35 | C=CCC(=O)O |
| 74 to 75 | O=C1OCc2ccccc21 |
| 108 to 111 | O=[N+]([O-])c1ccc(N=C=S)cc1 |
| -46 to -43 | Cc1cc(C)nc(C)c1 |
| 44 to 46.5 | O=[N+]([O-])c1cccs1 |
| -47 to -43.1 | CCCCCCCC(=O)OCC |
| 104 | CC(=O)NCCCCCC(=O)O |
| -103 | C=C(C)CCCC |
| 54.3 to 55 | CC(C)(C)c1ccc(O)c(O)c1 |
| -94 to -93.8 | C1CCCC1 |
| 12 to 13.5 | CC(=O)CCCC(=O)O |

| melting point [°C] | Structure (SMILES) |
| --- | --- |
| 72 to 74 | O=[N+]([O-])c1ccccc1CO |
| 200 to 201 | CCc1nnc(N)s1 |
| 99 to 101 | COc1ccccc1C(=O)O |
| 55 to 56 | O=C(c1ccccc1)C1CCCCC1 |
| 83 to 85 | COC(=O)c1cc(OC)c(OC)c(OC)c1 |
| 25 to 26 | COc1ccc(Br)c(OC)c1 |
| 91 to 93.5 | CN(C)Cc1cc(C(C)(C)C)c(O)c(C(C)(C)C)c1 |
| -45 to -42 | C1COCOC1 |
| 80 to 81.5 | Oc1cccc(Nc2ccccc2)c1 |
| 164 to 168 | c1ccc2c(c1)-c1cccc3c1c-2cc1ccccc13 |
| 95 to 96 | Oc1cccc2ccccc12 |
| 164 to 166 | Oc1c(Cl)cc(Cl)c(Cl)c1Cc1c(O)c(Cl)cc(Cl)c1Cl |
| 59 to 61 | C1CCCCCCCCCCC1 |
| 122 to 123 | Oc1ccc2ccccc2c1 |
| 70 to 71 | CC(=O)OCC(C(OC(C)=O)c1ccccc1)[N+](=O)[O-] (stereo not drawn) |
| 36.5 to 39 | Cc1ccc2cccnc2c1 |
| 85 to 86 | CC(=O)CC(=O)Nc1ccccc1 |
| 70.5 to 71.5 | O=Cc1c(Cl)cccc1Cl |
| 30 to 31 | CCCCCCCCCCCCCCCC(=O)OC |
| 146 to 147 | N#CI |
| 111 to 112 | CN(C)c1ccncc1 |
| 110 to 111 | CC(N)(CO)CO |
| -7 to -4 | OCCOCCOCCO |

| Structure (SMILES) | melting point [°C] |
| --- | --- |
| COC(=O)C(Cl)Cl | -52 to -51.9 |
| CCNc1nc(NC(C)(C)C)nc(SC)n1 | 104 to 105 |
| Nc1ccc([N+](=O)[O-])cc1C(=O)c1ccccc1 | 163 to 167 |
| Clc1cccc(Cl)c1 | -25 to -24.8 |
| Nc1ccccc1[N+](=O)[O-] | 71 to 73 |
| Cc1c[nH]cn1 | 51 to 56 |
| O=P(O)(O)CCCl | 70 to 74.5 |
| CCCC#N | -112 |
| ClCC(Cl)(Cl)Cl | -70.2 to -70 |
| Cc1cccc(C)c1[N+](=O)[O-] | 15 to 16 |
| CCOC(=O)CCl | -26 to -21 |
| O=[N+]([O-])c1ccc(Cl)cc1 | 83.5 to 84 |
| ICCI | 80 to 83 |
| O=C(O)COc1cccc(Cl)c1 | 108 to 110 |
| BrCc1ccc(Br)cc1 | 62 to 63 |
| O=P(O)(O)c1ccccc1 | 161 to 164 |
| CC12CCC3C(CCC4(C)CC5(CCC34C)OCCO5)C1CCC2=O (stereo not drawn) | 158 to 159 |
| Cc1cccc(N)c1C | 2 to 3 |
| Nc1c(Br)cc([N+](=O)[O-])cc1[N+](=O)[O-] | 152 to 154 |
| CC(C)(C)OO | -8 to -3 |
| Brc1c(Br)c(Br)c(Oc2c(Br)c(Br)c(Br)c(Br)c2Br)c(Br)c1Br | 305 to 306 |

| Structure (SMILES) | melting point [°C] |
| --- | --- |
| O=C(O)CCCc1ccc(N(CCCl)CCCl)cc1 | 64 to 65 |
| O=[N+]([O-])c1cc(Cl)c(Cl)c(Cl)c1 | 70 to 72.5 |
| OCCCl | -67.5 to -63 |
| CCCCC#N | -96.2 to -96 |
| O=[N+]([O-])c1cccc(Cl)c1Cl | 61.5 to 62 |
| c1ccc2cc3c(cc2c1)-c1cccc2cccc-3c12 | 216 to 217 |
| Cc1ccc(CCl)cc1 | 4 to 5 |
| O=[N+]([O-])c1cc(Cl)ccc1O | 87 to 89 |
| N#C/C=C/C#N | 96.8 to 97 |
| O=C(C(F)(F)F)C(F)(F)F | -129 to -125 |
| Oc1ccc(C(c2ccc(O)cc2)(C(F)(F)F)C(F)(F)F)cc1 | 160 to 162 |
| CC(C)CBr | -119 to -117 |
| CS | -123 to -121 |
| Clc1c(Cl)c(Cl)c(Cl)c(Cl)c1Cl | 228 to 232 |
| BrCc1ccc(CBr)cc1 | 142 to 144 |
| N#Cc1c(Cl)cccc1Cl | 143 to 145 |
| c1ccncc1 | -42 to -41.6 |
| N#Cc1cccc(C(=O)O)c1 | 219 to 223 |
| C=CCBr | -119 |
| FC(F)(F)C(F)(F)F | -101 to -100 |
